This experiment addresses T1, human DGAT1 (Homo sapiens, UniProt O75907).
T1 construct: made in house; host or cells: Sf9 insect cells (microsomes)
T1 sequence (O75907 1-488): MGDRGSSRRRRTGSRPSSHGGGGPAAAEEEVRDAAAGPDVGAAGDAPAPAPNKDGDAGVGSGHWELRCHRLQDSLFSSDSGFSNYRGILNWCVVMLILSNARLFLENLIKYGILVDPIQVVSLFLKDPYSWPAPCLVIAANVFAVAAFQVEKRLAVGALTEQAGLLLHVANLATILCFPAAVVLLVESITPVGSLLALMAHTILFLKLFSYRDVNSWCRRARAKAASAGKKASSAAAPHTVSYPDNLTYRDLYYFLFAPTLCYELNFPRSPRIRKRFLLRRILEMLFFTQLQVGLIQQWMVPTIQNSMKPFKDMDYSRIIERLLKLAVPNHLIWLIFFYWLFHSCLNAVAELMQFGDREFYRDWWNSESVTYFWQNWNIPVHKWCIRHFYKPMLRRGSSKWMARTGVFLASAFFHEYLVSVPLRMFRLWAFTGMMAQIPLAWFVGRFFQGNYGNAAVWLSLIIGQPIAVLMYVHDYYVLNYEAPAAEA
Kind of experiment: in vitro DGAT1 inhibition assay (microsomes, [14C]-palmitoyl-CoA, wheat germ agglutinin beads). The experiment is classed as biochemical. To be noted: human DGAT1 enzyme expressed in Sf9 insect cells, 2 hours at room temperature. As for the experimental part:
The assay used to determine the DGAT inhibitory activity of the inventive compounds is described below:
The in vitro assay to identify DGAT1 inhibitors uses human DGAT1 enzyme expressed in Sf9 insect cells prepared as microsomes. The reaction was initiated by the addition of the combined substrates 1,2-dioleoyl-sn-glycerol and [^14C]-palmitoyl-CoA and incubated with test compounds and microsomal membranes for 2 hours at room temperature. The assay was stopped by adding 0.5 mg wheat germ agglutinin beads in assay buffer with 1% Brij-35 and 1% 3-cholamidopropyldimethyl-ammonio-1-propane sulfonate. Plates were sealed with TopSeal and incubated for 18 hours to allow the radioactive triglyceride product to come into proximity with the bead. Plates were read on a TopCount instrument.
Percent inhibition was calculated as the percent of (test compound inhibition minus non-specific binding) relative to (total binding minus non-specific binding). IC50 values were determined by curve fitting the data to a Sigmoidal dose-response in GraphPad Prism utilizing the following equation:
Y=A+(B−A)/(1+10̂((LogIC50−X))),
where A and B are the bottom and top of the curve (highest and lowest inhibition), respectively, and X is the logarithm of concentration.
In turn, `O=C(O)C[C@H]1CC[C@H](c2ccc(-c3ccc4c(c3)OCCN4C(=O)Nc3ccc(F)cc3C(F)(F)F)cc2)CC1` [Example C-6, 2-((1r,4r)-4-(4-(4-(4-fluoro-2-(trifluoromethyl)phenylcarbamoyl)-3,4-dihydro-2H-benzo[b][1,4]oxazin-7-yl)phenyl)cyclohexyl)acetic acid] registered an IC50 of 0.02 µM.

In the case of `Cc1cc(C(=O)NCCc2ccccc2)c2ccc(-c3ccc([C@H]4CC[C@H](CC(=O)O)CC4)cc3)cc2n1` [Example C-139, 2-((1r,4r)-4-(4-(2-methyl-4-(phenethylcarbamoyl)quinolin-7-yl)phenyl)cyclohexyl)acetic acid], the IC50 is 0.061 µM.

The compound `Cc1cc(C(=O)Nc2ccccc2)c2ccc(-c3ccc([C@H]4CC[C@H](CC(=O)O)CC4)cc3)cc2n1` [Example C-134, 2-((1r,4r)-4-(4-(2-methyl-4-(phenylcarbamoyl)quinolin-7-yl)phenyl)cyclohexyl)acetic acid] displayed an IC50 of 0.028 µM.

With `CCCCCCCNC(=O)N1CC(CC)Oc2cc(-c3ccc([C@H]4CC[C@H](CC(=O)O)CC4)cc3)ccc21` (stereo partly shown) [Example C-150, 2-((1r,4r)-4-(4-(2-ethyl-4-(heptylcarbamoyl)-3,4-dihydro-2H-benzo[b][1,4]oxazin-7-yl)phenyl)cyclohexyl)acetic acid], the IC50 amounted to 0.083 µM.

The compound `CCc1ccccc1NC(=O)N1C[C@@H](C)Oc2cc(-c3ccc([C@H]4CC[C@H](CC(=O)O)CC4)cc3)ccc21` [C-81 enantiomer A, 2-((1r,4r)-4-(4-(4-(2-ethylphenylcarbamoyl)-2-methyl-3,4-dihydro-2H-benzo[b][1,4]oxazin-7-yl)phenyl)cyclohexyl)acetic acid] had an IC50 of 0.058 µM.

`CC1CN(C(=O)Nc2ccc(F)cc2C(F)(F)F)c2ccc(-c3ccc([C@H]4CC[C@H](CC(=O)O)CC4)cc3)cc2O1` (single isomer, unassigned) [C-78 enantiomer A, 2-((1r,4r)-4-(4-(4-(4-fluoro-2-(trifluoromethyl)phenylcarbamoyl)-2-methyl-3,4-dihydro-2H-benzo[b][1,4]oxazin-7-yl)phenyl)cyclohexyl)acetic acid] had an IC50 of 0.079 µM.

`CCCCCCNC(=O)N1CC(C)Oc2cc(-c3ccc([C@H]4CC[C@H](CC(=O)O)CC4)cc3)ccc21` (stereo partly shown) [Example C-113, 2-((1r,4r)-4-(4-(4-(hexylcarbamoyl)-2-methyl-3,4-dihydro-2H-benzo[b][1,4]oxazin-7-yl)phenyl)cyclohexyl)acetic acid] had an IC50 of 0.082 µM.

Consider `CCCCCCCNC(=O)N1CC(C)Oc2cc(-c3ccc([C@H]4CC[C@H](CC(=O)O)CC4)cc3)ccc21` (stereo partly shown) [Example C-116, 2-((1r,4r)-4-(4-(4-(heptylcarbamoyl)-2-methyl-3,4-dihydro-2H-benzo[b][1,4]oxazin-7-yl)phenyl)cyclohexyl)acetic acid], for which the IC50 is 0.071 µM.

Take `O=C(O)C[C@H]1CC[C@H](c2ccc(-c3ccc4c(C(=O)Nc5ccccc5)ccnc4c3)cc2)CC1` [Example B-48, 2-((1r,4r)-4-(4-(4-(phenylcarbamoyl)quinolin-7-yl)phenyl)cyclohexyl)acetic acid]: the IC50 was determined as 0.083 µM.

In turn, `Cc1cc(C(=O)NCCCCc2ccccc2)c2ccc(-c3ccc([C@H]4CC[C@H](CC(=O)O)CC4)cc3)cc2n1` [Example C-141, 2-((1r,4r)-4-(4-(2-methyl-4-(4-phenylbutylcarbamoyl)quinolin-7-yl)phenyl)cyclohexyl)acetic acid] had an IC50 of 0.015 µM.

For the compound `C[C@@H]1CN(C(=O)Nc2ccccc2)c2ccc(-c3ccc([C@H]4CC[C@H](CC(=O)O)CC4)cc3)cc2O1` [B-18 enantiomer A, 2-((1r,4r)-4-(4-(2-methyl-4-(phenylcarbamoyl)-3,4-dihydro-2H-benzo[b][1,4]oxazin-7-yl)phenyl)cyclohexyl)acetic acid], the IC50 stood at 0.043 µM.

For the compound `CCCc1ccccc1NC(=O)c1ccnc2cc(-c3ccc([C@H]4CC[C@H](CC(=O)O)CC4)cc3)ccc12` [Example C-129, 2-((1r,4r)-4-(4-(4-(2-propylphenylcarbamoyl)quinolin-7-yl)phenyl)cyclohexyl)acetic acid], the IC50 came to 0.094 µM.

`CC(C)c1ccccc1NC(=O)c1ccnc2cc(-c3ccc([C@H]4CC[C@H](CC(=O)O)CC4)cc3)ccc12` [Example C-125, 2-((1r,4r)-4-(4-(4-(2-isopropylphenylcarbamoyl)quinolin-7-yl)phenyl)cyclohexyl)acetic acid] showed an IC50 of 0.072 µM.

By IC50 is commonly meant the concentration that gives 50% inhibition.
